Our source for the TGI and GI50 values is PubChem BioAssay (NCI).

Some test systems named below: HL-60(TB) leukemia; HCT-116 colon; CCRF-CEM leukemia; SF-268 CNS; OVCAR-8 ovarian; UACC-62 melanoma; SNB-19 CNS; NCI-H226 lung.
Assay in all cases: NCI-60 cell line screen, 48 h

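How tested: cells in 96-well plates exposed to compound for 48 hours at five concentrations. GI50 is the concentration that inhibits growth by half. At the TGI there is no net growth.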 Where only a bound is given, the exact number is not on record here.

`COc1ccc(-c2c(C)c(C(=O)O)nc(-c3ccc4c(O)c(OC)c5c(c4n3)=NC(C)(C)N=5)c2N)c(O)c1OC`: the TGI in the experiment with HL-60(TB) leukemia was found to be 37.1 µM; with HCT-116 colon, 52.1 µM; in the experiment on CCRF-CEM leukemia it was 24.4 µM; in the experiment with SF-268 CNS it was 21.6 µM; with OVCAR-8 ovarian, 21.5 µM; in the experiment with UACC-62 melanoma, 62.2 µM. For the same molecule, the TGI in the experiment on SNB-19 CNS turned out to be 95 µM; in the experiment on NCI-H226 lung, 63.1 µM.

Consider `O=[N+]([O-])c1cccc(/C=N/NC2=CS(=O)(=O)C=C2)c1`, for which the TGI in the experiment with HL-60(TB) leukemia, in the experiment on HCT-116 colon, in the experiment with CCRF-CEM leukemia, in the experiment on SF-268 CNS, with OVCAR-8 ovarian and with UACC-62 melanoma was over 100 µM each time. In addition, the TGI in the experiment on SNB-19 CNS and with NCI-H226 lung was over 100 µM each time.

Take `COc1ccc(/C=C(/c2ccccc2)[N+](=O)[O-])c(OC)c1`: the GI50 was 1.15 µM with HL-60(TB) leukemia; 1.02 µM in the experiment on HCT-116 colon; 0.46 µM in the experiment on CCRF-CEM leukemia; 1.65 µM with SF-268 CNS; 1.66 µM in the experiment with OVCAR-8 ovarian; 1.22 µM with UACC-62 melanoma. Further, the GI50 was 1.65 µM in the experiment with SNB-19 CNS and 1.95 µM in the experiment on NCI-H226 lung. The TGI came to 5.25 µM with HL-60(TB) leukemia; 2.29 µM in the experiment on HCT-116 colon; 4.76 µM with CCRF-CEM leukemia; 3.14 µM in the experiment on SF-268 CNS; 5.14 µM in the experiment with OVCAR-8 ovarian; 2.7 µM in the experiment with UACC-62 melanoma. Further, the TGI turned out to be 3.05 µM in the experiment with SNB-19 CNS and 4.49 µM with NCI-H226 lung.

With `O=[N+]([O-])/C=C/c1c(Cl)cccc1Cl`, the TGI in the experiment with HL-60(TB) leukemia is over 100 µM; in the experiment with HCT-116 colon, 14 µM; with CCRF-CEM leukemia, over 18.2 µM; with SF-268 CNS, 28.2 µM; in the experiment with OVCAR-8 ovarian it was 4.13 µM; with UACC-62 melanoma, 8.14 µM. Besides, the TGI was 12.1 µM in the experiment with SNB-19 CNS and 50.6 µM in the experiment on NCI-H226 lung.

As to `CO/N=C(\COc1ccc2c(=O)c3ccccc3oc2c1)c1ccccc1`, the GI50 in the experiment on HL-60(TB) leukemia is over 100 µM; with HCT-116 colon, 68.6 µM; in the experiment with CCRF-CEM leukemia it was over 100 µM; in the experiment with SF-268 CNS, 33.2 µM; in the experiment with OVCAR-8 ovarian, 30.4 µM; with UACC-62 melanoma it was 21.6 µM. Moreover, the GI50 in the experiment on SNB-19 CNS is 54.5 µM; in the experiment on NCI-H226 lung it was 40.8 µM. Also, the TGI was over 100 µM with HL-60(TB) leukemia; over 100 µM in the experiment with HCT-116 colon; over 100 µM with CCRF-CEM leukemia; over 100 µM with SF-268 CNS; 97.2 µM in the experiment on OVCAR-8 ovarian; 49.9 µM in the experiment with UACC-62 melanoma. In addition, the TGI in the experiment with SNB-19 CNS and in the experiment with NCI-H226 lung was over 100 µM in each case.

Turning to `O=c1[nH]c(=O)n(C2CC(O)C(CO)O2)cc1Oc1ccccc1` (stereo unspecified), the TGI in the experiment with HL-60(TB) leukemia, in the experiment with HCT-116 colon, with CCRF-CEM leukemia, in the experiment on SF-268 CNS, with OVCAR-8 ovarian and in the experiment with UACC-62 melanoma was over 100 µM each time. In addition, the TGI in the experiment on SNB-19 CNS and in the experiment with NCI-H226 lung was over 100 µM throughout.

`COC(=O)c1c2c(c(C)[n+]([O-])c1C)C(=O)C=C(NCc1ccccc1)C2=O`: the GI50 in the experiment on HL-60(TB) leukemia is 0.317 µM; in the experiment on HCT-116 colon, 0.303 µM; with CCRF-CEM leukemia it was 0.668 µM; with SF-268 CNS, 1.51 µM; in the experiment on OVCAR-8 ovarian it was 0.408 µM; in the experiment with UACC-62 melanoma it was 0.286 µM. Besides, the GI50 in the experiment with SNB-19 CNS is 1.42 µM; with NCI-H226 lung, 1.78 µM. Further, the TGI in the experiment on HL-60(TB) leukemia was 1.19 µM; in the experiment on HCT-116 colon, 1.05 µM; with CCRF-CEM leukemia, 3.71 µM; with SF-268 CNS, 4.47 µM; in the experiment on OVCAR-8 ovarian it was 2.16 µM; in the experiment with UACC-62 melanoma it was 1.21 µM. Further, the results for the TGI in the experiment with SNB-19 CNS and in the experiment with NCI-H226 lung were 2.74 µM and 3.74 µM, respectively.

For the molecule `NC(=N\N=C/c1ccc(O)cc1)/C(N)=N\N=C/c1ccc(O)cc1`, the GI50 in the experiment with HL-60(TB) leukemia is 0.251 µM; in the experiment on HCT-116 colon, over 100 µM; in the experiment with CCRF-CEM leukemia, 0.324 µM; in the experiment with SF-268 CNS, 16.4 µM; with OVCAR-8 ovarian, 51.4 µM; in the experiment with UACC-62 melanoma, 2.22 µM. Further, the GI50 in the experiment on SNB-19 CNS was 62.5 µM; in the experiment on NCI-H226 lung, over 100 µM. Besides, the TGI is over 100 µM with HCT-116 colon; over 100 µM in the experiment with CCRF-CEM leukemia; over 100 µM with SF-268 CNS; over 100 µM in the experiment on OVCAR-8 ovarian; over 52 µM in the experiment with UACC-62 melanoma; over 100 µM in the experiment with SNB-19 CNS. The TGI in the experiment on NCI-H226 lung was over 100 µM.

On to `COC(=O)c1cc(-c2ccccc2)[nH]c1N/N=C/c1c(Cl)cccc1Cl`, for which the GI50 in the experiment with HL-60(TB) leukemia is 0.289 µM; in the experiment with HCT-116 colon, 0.318 µM; in the experiment on CCRF-CEM leukemia it was 0.348 µM; in the experiment with SF-268 CNS, 0.436 µM; in the experiment on OVCAR-8 ovarian it was 0.473 µM; with UACC-62 melanoma it was 0.278 µM. In addition, the GI50 in the experiment on SNB-19 CNS was 0.435 µM; in the experiment on NCI-H226 lung, 0.369 µM. Besides, the TGI was 1.71 µM in the experiment on HCT-116 colon; 93 µM in the experiment with CCRF-CEM leukemia; 8.25 µM in the experiment with SF-268 CNS; over 100 µM in the experiment on OVCAR-8 ovarian; 9 µM with UACC-62 melanoma; 15.3 µM in the experiment with SNB-19 CNS.

In the case of `C=CC(=O)N1CCC(c2ccc(C(N)=O)c(-c3ccc(Oc4ccccc4)cc3)n2)CC1`, the GI50 in the experiment with HL-60(TB) leukemia was 19.5 µM; in the experiment with HCT-116 colon it was 35.9 µM; in the experiment with CCRF-CEM leukemia it was 33.9 µM; in the experiment with SF-268 CNS, 50.5 µM; in the experiment with OVCAR-8 ovarian, 30.9 µM; in the experiment on UACC-62 melanoma, 30 µM. For the same molecule, the GI50 in the experiment on SNB-19 CNS is 47.9 µM; in the experiment with NCI-H226 lung it was 20.3 µM. The TGI in the experiment with HL-60(TB) leukemia is 58.8 µM; in the experiment with HCT-116 colon it was over 100 µM; with CCRF-CEM leukemia, over 100 µM; with SF-268 CNS it was over 100 µM; in the experiment on OVCAR-8 ovarian it was over 100 µM; in the experiment with UACC-62 melanoma, over 100 µM. For the same molecule, the TGI is over 100 µM in the experiment with SNB-19 CNS and 79.2 µM with NCI-H226 lung.

Take `O=S(=O)(NC1CCCCC1)c1ccc2c(c1)OCCOCCOCCOCCO2`: the TGI in the experiment with HL-60(TB) leukemia, with HCT-116 colon, with CCRF-CEM leukemia, with SF-268 CNS, with OVCAR-8 ovarian and in the experiment on UACC-62 melanoma was over 100 µM each time. The TGI in the experiment on SNB-19 CNS and with NCI-H226 lung was over 100 µM throughout.

Regarding `Nc1ccn(C2CC(F)C(CO)O2)c(=O)n1` (stereo unspecified), the GI50 with HL-60(TB) leukemia, in the experiment with HCT-116 colon, in the experiment on CCRF-CEM leukemia, in the experiment on SF-268 CNS, with OVCAR-8 ovarian and in the experiment with UACC-62 melanoma was over 100 µM in each case. In addition, the GI50 in the experiment on SNB-19 CNS and with NCI-H226 lung was over 100 µM each time. Moreover, the TGI in the experiment on HL-60(TB) leukemia, in the experiment on HCT-116 colon, in the experiment with CCRF-CEM leukemia, with SF-268 CNS, in the experiment with OVCAR-8 ovarian and in the experiment with UACC-62 melanoma was over 100 µM in each case. Also, the TGI in the experiment on SNB-19 CNS and in the experiment on NCI-H226 lung was over 100 µM each time.

As for `O=[N+]([O-])c1cc[n+]([O-])c2ccccc12`, the GI50 in the experiment on HL-60(TB) leukemia is 1.05 µM; with HCT-116 colon, 0.0698 µM; with CCRF-CEM leukemia it was 1.55 µM; in the experiment with SF-268 CNS it was 0.282 µM; in the experiment with OVCAR-8 ovarian, 0.33 µM; in the experiment on UACC-62 melanoma, 0.231 µM. The results for the GI50 with SNB-19 CNS and in the experiment on NCI-H226 lung were 0.374 µM and 0.311 µM, respectively. Further, the TGI in the experiment with HL-60(TB) leukemia came out at 4.29 µM; in the experiment with HCT-116 colon it was 0.316 µM; in the experiment on CCRF-CEM leukemia it was 5.27 µM; with SF-268 CNS it was 1.24 µM; in the experiment with OVCAR-8 ovarian, 2.12 µM; in the experiment on UACC-62 melanoma it was 0.698 µM. Moreover, the TGI in the experiment with SNB-19 CNS stood at 2.91 µM; with NCI-H226 lung it was 1.38 µM.

Take `O=C(CCN1CCCC1)Nc1ccc2c(NCc3ccccc3)c3ccccc3nc2c1`: the GI50 with HL-60(TB) leukemia was 0.587 µM; in the experiment with HCT-116 colon, 0.309 µM; in the experiment with CCRF-CEM leukemia it was 0.493 µM; with SF-268 CNS, 0.457 µM; in the experiment with OVCAR-8 ovarian, 0.452 µM; with UACC-62 melanoma, 0.454 µM. Besides, the GI50 in the experiment with SNB-19 CNS is 0.408 µM; in the experiment with NCI-H226 lung, 0.551 µM. Moreover, the TGI with HL-60(TB) leukemia was found to be 2.8 µM; in the experiment on HCT-116 colon, 1.31 µM; in the experiment with SF-268 CNS, 1.85 µM; with OVCAR-8 ovarian, 2.84 µM; in the experiment with UACC-62 melanoma, 1.67 µM; with SNB-19 CNS, 1.83 µM. In the experiment on NCI-H226 lung, this molecule yielded a TGI of 2.91 µM.

Regarding `COc1cc2c3c(n(CCCN)c(=O)c2cc1OC)-c1ccc([N+](=O)[O-])cc1C3=O`, the GI50 in the experiment with HL-60(TB) leukemia was 17.8 µM; in the experiment with HCT-116 colon it was 1.32 µM; in the experiment on CCRF-CEM leukemia, 0.15 µM; in the experiment with SF-268 CNS, 7.74 µM; with OVCAR-8 ovarian it was 2 µM; in the experiment with UACC-62 melanoma, 11.5 µM. Moreover, the GI50 with SNB-19 CNS was 3.11 µM; with NCI-H226 lung, 17.4 µM. Further, the TGI was 37.8 µM in the experiment on HL-60(TB) leukemia; 2.74 µM in the experiment on HCT-116 colon; 2.73 µM with CCRF-CEM leukemia; 24.4 µM in the experiment with SF-268 CNS; 5.41 µM in the experiment on OVCAR-8 ovarian; 25.1 µM with UACC-62 melanoma. In addition, the TGI with SNB-19 CNS was 18.3 µM; with NCI-H226 lung, 38.3 µM.

For the molecule `COc1ccc(C(=O)Cn2c(C(=O)c3ccccc3)nc3ccccc32)cc1`, the GI50 with HL-60(TB) leukemia is 0.916 µM; with HCT-116 colon, 2.25 µM; in the experiment with CCRF-CEM leukemia, 2.87 µM; in the experiment on SF-268 CNS, 4.18 µM; in the experiment on OVCAR-8 ovarian it was 10.2 µM; in the experiment with SNB-19 CNS, 6.74 µM. In addition, in the experiment with NCI-H226 lung, the GI50 was over 90.5 µM. Moreover, the TGI is over 22.9 µM with HL-60(TB) leukemia; over 100 µM in the experiment with HCT-116 colon; over 58.1 µM in the experiment on CCRF-CEM leukemia; over 100 µM in the experiment with SF-268 CNS; over 100 µM in the experiment on OVCAR-8 ovarian; over 100 µM in the experiment on UACC-62 melanoma. The TGI in the experiment on SNB-19 CNS and with NCI-H226 lung was over 100 µM in each case.
